Entries after “also recorded” stand apart in the source; their conditions may differ.
Columns and labels:
[1] = system: triple-negative breast cancer MDA-MB-231 cells [三阴性乳腺癌MDA-MB-231细胞]; assay: MTT assay of MDA-MB-231 cell proliferation; format: cell-based; conditions: MDA-MB-231, 24 h
[2] = system: retinoid X receptor [类视黄醇X受体]; conditions: cited from earlier work
GPER = GPER (Homo sapiens, UniProt Q99527); assay: GPER activity (conclusion, no separate method); format: biochemical
[3] = target: T1, GPER target protein [GPER靶蛋白] (Homo sapiens, UniProt Q99527); assay: Cellular thermal shift analysis (CESTA) with Western blot; format: binding; conditions: 10 μM, 24 h, GPER overexpressing HEK-293T
T1 construct: expressed in transfected cells; host or cells: 293T (HEK-293T), lentiviral recombinant plasmid system

[4] = target: T2, GPER-1 overexpressing 293T cells [GPER-1过表达细胞, 293T细胞系] (Homo sapiens, UniProt Q99527); assay: UPLC-QTOF/MS screening of CGD components binding to GPER-1 overexpressing cells; conditions: GPER gene overexpressing cell line
T2 construct: expressed in transfected cells; host or cells: 293T (HEK-293T), lentiviral recombinant plasmid system
T2 sequence (Q99527 whole entry): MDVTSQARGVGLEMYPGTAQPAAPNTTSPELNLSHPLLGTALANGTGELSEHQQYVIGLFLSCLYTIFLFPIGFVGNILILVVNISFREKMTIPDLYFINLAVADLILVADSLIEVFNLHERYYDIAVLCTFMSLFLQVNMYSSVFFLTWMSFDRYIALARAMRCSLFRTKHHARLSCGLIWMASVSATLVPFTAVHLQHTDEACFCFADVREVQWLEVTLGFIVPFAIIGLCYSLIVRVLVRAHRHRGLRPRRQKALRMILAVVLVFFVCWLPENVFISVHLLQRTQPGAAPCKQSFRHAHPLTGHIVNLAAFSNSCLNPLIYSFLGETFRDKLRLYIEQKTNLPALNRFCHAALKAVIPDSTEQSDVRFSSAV

T1 sequence (Q99527 whole entry): as above
GPER, sequence (Q99527 whole entry, species assumed): as the sequence (Q99527 whole entry) above

CC(C)=CCC[C@@H](C(=O)O)[C@H]1[C@H](O)C[C@@]2(C)C3=CC[C@H]4C(C)(C)[C@@H](O)CC[C@]4(C)C3=CC[C@]12C [16α-羟基松苓新酸, 16α-Hydroxydehydrotrametenolic acid]
inhibition of triple-negative breast cancer cell proliferation at 10 μmol/L ([1]; 10 μmol/L): 具有抑制三阴乳腺癌细胞增殖的能力 | inhibition of cancer cell proliferation at 40 μmol/L ([1]; 40 μmol/L): 接近最大抑制能力 | inhibition of triple-negative breast cancer cell proliferation ([1]; 0.5-100 μmol/L, Fig. 4): 具有显著的抑制三阴乳腺癌细胞增殖的能力 | inhibition at 40 μmol/L compared with 100 μmol/L ([1]; 40 vs 100 μmol/L): 和100μmol/L浓度相当 | concentration dependence of cancer cell inhibition ([1]; increasing concentration from 10 μmol/L): 抑制癌细胞的能力随浓度增高而增加 | agonism at retinoid X receptor [2]: 天然选择性激动剂 | GPER activity (GPER): 提高GPER活性 | binding ability to GPER (CESTA) [3]: 与GPER具有较强的结合能力; also recorded: 结合能力尤为突出 | abundance of GPER target protein after heating vs vehicle ([3]; 55 to 70°C): 丰度高于用载体处理的蛋白质的丰度 | stability of target protein ([3]; 55 to 70°C): 增加了靶蛋白的稳定性; also recorded: 能促进GPER靶蛋白的热稳定 | binding to GPER overexpressing cell line [4]: 能与GPER基因过表达细胞系相结合

From CN117899087A, “与g蛋白偶联型雌激素受体结合的治疗乳腺癌的中药提取物及其应用” (Wuxi Hospital of Traditional Chinese Medicine, priority 2024, dated 2024)
